One compound from patent US4066650A, “Keto-aldehyde-amine addition products and method of making same” (priority 1975, dated 1978) can be followed below.

The test relates to skin graft. Put plainly: Skin graft rejection (orthotopic skin heterografts white to gray and gray to white). The class given is in vivo, Swiss albino mice and C3HStCrl mice. The conditions noted are these: 3.744 mg/kg i.p. daily, cumulative; for rejection on 31-40 days: g to w line; for rejection on 26-30 days: w to g line. An excerpt: Skin grafting in mice is well established and this tissue is among the most sensitive indicators of histocompability differences. The retnetion of skin graft between genetically non-related mice is an excellent method of evaluating activity against rejection mechanism. p As the rejection of transplants is associated with antigen formation against the incompatible proteins of the donated tissue, a drug which specifically represses the protein synthesis without affecting the intermediary metabolism of the host is a potential candidate for combatting rejection.
The experiments described here were performed on random-bred Swiss albino mice (white, females, average body weight 26±3 g; Charles River CD-1-strain) and inbred C3HStCrl mice (cinnamon gray, females, average body weight 20±2 grams; Charles River pedigreed breeders from L. C. Strong Foundation) and othotopic skin transplants were made in both ways, that is, white to gray and gray to white.
Standard transplantation technique (R. E. Billingham, W. K. Silvers in Transplantation of tissues and cells, The Wistar Institute Press, Philadelphia, p. 8, 1961) was utilized: From nembutal anesthetized animals 4-6 "pinch"-grafts (full thickness, 3-4 mm in diameter) of the close clipped and sterilized skin were collected from the thorax and immediately transplanted. The grafts were positioned in the "beds" (in place of the pinch-graft) and were held in position by tulle gras (vaseline-impregnatedgauze) and by plaster-of-Paris impregnated bandage around the thorax.
The bandages were removed on the 6-9th day after the transplantation and the future development of the grafts was followed by macroscopical observations.
Positive and negative controls were made simultaneously for skin rejection:
a. Four positive control isografts (white to white, and gray to gray) were made. […] On the 21-28th day the fur-bearing skin had regenerated a completely new crop of hairs indistinguishable from the original population with respect to colors, density and orientation.
b. Four negative control heterografts (white to gray and gray to white) were made without treatment. […] On the 10-12th day after transplantation intravascular thrombies, capillary ruptures, extravasation of blood were the first signs that the grafts were heading for necrosis and rejection which occurred on the 18-25th day.
The heterografts with treatment followed three courses with methylglyoxal-maleimide (at dose level 3.744 mg/kg/animal/day) administered intraperitoneally in a total amount of 1.0 ml/animal/day.
i. Animals were treated for 10 days with the composition before grafts were exchanged and treatment was discontinued on the day of transplantation.
ii. Animals were not treated before the grafts were exchanged but the treatment started on the day of transplantation and continued for 10 days.
iii. Animals were treated for 10 days with the drug before the grafts were exchanged and the treatment schedule was continued for 25 days after the transplantation.

[1] abbreviates: (ii) post graft treatment for 10 days.
The mark [2] stands for this setting: (iii) pretreatment for 10 days and post graft treatment for 25 days.

For the compound `CC(=O)C(O)N1C(=O)C=CC1=O` (stereo not drawn) [Methylglyoxal-maleimide, N'-(2-keto-propane-1-ol)-2,5-dioxopyrroline-3-ene], the “rejection on 31-40 days” value ((i) pretreatment for 10 days) came out at 100%, the “rejection on 31-40 days” value under setting [1] is 60% and the “rejection on 31-40 days” value under setting [2] is recorded as 10%. Further, the “rejection on 26-30 days” value is on record as 30% ((i) pretreatment for 10 days), 10% under setting [1] and “No rejection” under setting [2].
